Measured values taken from PubChem BioAssay (NCI).
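Assay format: 96-well plates, 48-hour exposure. The concentration for full growth arrest is given as TGI.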

Columns and labels:
Assay in all cases: DTP human tumour cell line panel, 48 h
[1] = tested on: M14 melanoma
[2] = tested on: K-562 leukemia
[3] = tested on: COLO 205 colon
[4] = tested on: OVCAR-8 ovarian
[5] = tested on: SF-268 CNS
[6] = tested on: HT29 colon
[7] = tested on: KM12 colon
[8] = tested on: SK-MEL-2 melanoma
[9] = tested on: SN12C renal
[10] = tested on: SR leukemia
[11] = tested on: HOP-62 NSCLC
[12] = tested on: CAKI-1 renal
[13] = tested on: PC-3 prostate
[14] = tested on: T-47D breast
[15] = tested on: HS 578T breast
[16] = tested on: BT-549 breast
[17] = tested on: RXF 393 renal
[18] = tested on: MDA-N
[19] = tested on: MDA-MB-231 breast

| SMILES | TGI [1] | TGI [2] | TGI [3] | TGI [4] | TGI [5] | TGI [6] | TGI [7] | TGI [8] | TGI [9] | TGI [10] | TGI [11] | TGI [12] | TGI [13] | TGI [14] | TGI [15] | TGI [16] | TGI [17] | TGI [18] | TGI [19] |
| --- | --- | --- | --- | --- | --- | --- | --- | --- | --- | --- | --- | --- | --- | --- | --- | --- | --- | --- | --- |
| O=C(CC(=O)Nc1cccc(Cl)c1)NNCC(=O)Nc1nnc(-c2ccccc2)s1 | > 100 µM | > 100 µM | > 100 µM | > 100 µM | > 100 µM | > 100 µM | > 100 µM | > 100 µM | > 100 µM | > 100 µM | > 100 µM | > 100 µM | – | – | – | – | – | – | – |
| COC(=O)[C@@H]1C=C[C@H](OC2OC(COC(C)=O)C(OC(C)=O)C(OC(C)=O)C2OC(C)=O)n2c(=O)c3ccccc3c(=O)n21 (some centres undefined) | 36.9 µM | 24.5 µM | 22.4 µM | 49 µM | – | 60.9 µM | 27.4 µM | 24.5 µM | – | > 100 µM | 36.3 µM | 13 µM | 25.3 µM | 20.9 µM | 76.2 µM | 18.2 µM | 20.1 µM | – | – |
| O=[N+]([O-])c1ccc2[nH]nc(OCc3ccccn3)c2c1 | > 100 µM | > 100 µM | > 100 µM | > 100 µM | > 100 µM | > 100 µM | > 100 µM | > 100 µM | > 100 µM | > 100 µM | > 100 µM | > 100 µM | > 100 µM | > 100 µM | > 100 µM | – | > 100 µM | > 100 µM | > 100 µM |
| Nc1ccc2nc(NCc3ccc(F)cc3)cnc2c1 | > 100 µM | > 100 µM | > 100 µM | > 100 µM | > 100 µM | > 100 µM | > 100 µM | > 100 µM | > 100 µM | > 100 µM | > 100 µM | – | – | – | – | – | > 100 µM | – | – |
| CC(C)CC[C@H](O)[C@@H](C)[C@H]1[C@@H](OC2OC(C)C(O)C(O)C2O)C[C@H]2[C@@H]3CC=C4C[C@@H](O)CC[C@]4(C)[C@H]3[C@@H](O)C[C@]12C (some centres undefined) | > 23.4 µM | 0.422 µM | 7.17 µM | > 100 µM | > 100 µM | > 100 µM | – | > 100 µM | > 100 µM | – | > 68.7 µM | > 64 µM | > 100 µM | > 100 µM | 2.36 µM | > 100 µM | > 100 µM | – | > 100 µM |
| Cc1nc2ccc(Cl)cc2c2c1CCS2 | > 100 µM | > 100 µM | > 100 µM | > 100 µM | > 100 µM | > 100 µM | > 100 µM | > 100 µM | > 100 µM | 86.6 µM | > 100 µM | > 100 µM | > 100 µM | > 100 µM | > 100 µM | – | > 100 µM | > 100 µM | > 100 µM |
| N#CCCN(c1ccc(/C=C2\N=C(Cc3ccccc3)OC2=O)cc1)S(=O)(=O)c1ccccc1 | > 100 µM | > 100 µM | > 100 µM | > 100 µM | > 100 µM | > 100 µM | > 100 µM | > 100 µM | > 100 µM | – | > 100 µM | > 100 µM | – | – | – | – | > 100 µM | – | – |
| N#Cc1c2c(c(Nc3cccc(C(F)(F)F)c3)n3c1nc1ccccc13)CCC2 | – | – | > 100 µM | > 100 µM | > 100 µM | > 100 µM | > 100 µM | – | > 100 µM | – | > 100 µM | > 100 µM | – | > 100 µM | – | > 100 µM | > 100 µM | – | > 100 µM |
| C=CCOC(=O)Cn1cc(C)c(=O)[nH]c1=O | > 100 µM | > 100 µM | > 100 µM | > 100 µM | > 100 µM | > 100 µM | > 100 µM | > 100 µM | > 100 µM | > 100 µM | > 100 µM | > 100 µM | > 100 µM | > 100 µM | > 100 µM | – | – | > 100 µM | > 100 µM |
| CC(=O)N1CN2C(=O)CCC2c2ccccc21 (centres undefined) | > 100 µM | > 100 µM | > 100 µM | > 100 µM | > 100 µM | > 100 µM | > 100 µM | > 100 µM | > 100 µM | 97.9 µM | > 100 µM | > 100 µM | > 100 µM | > 100 µM | > 100 µM | – | > 100 µM | > 100 µM | > 100 µM |
| C=[N+](CNC(=O)CNC(=O)C(Cc1ccc([N+](=O)[O-])cc1)NC(=O)OC(C)(C)C)C(=O)CNC(=O)C(Cc1ccc([N+](=O)[O-])cc1)NC(=O)OC(C)(C)C (centres undefined) | > 100 µM | > 100 µM | > 100 µM | > 100 µM | 61.8 µM | > 100 µM | > 100 µM | – | > 100 µM | 80.6 µM | > 100 µM | > 100 µM | > 100 µM | – | > 100 µM | 85.5 µM | > 100 µM | – | 59 µM |
| NC(=O)c1cccc(C2OC(COP(=O)(O)O)C(O)C2O)c1 (centres undefined) | > 50 µM | > 50 µM | > 50 µM | > 50 µM | > 50 µM | > 50 µM | > 50 µM | > 50 µM | > 50 µM | – | > 50 µM | > 50 µM | – | – | – | – | > 50 µM | – | – |
| CC(=O)O[C@]12CCCCC1C1(O)C(O)CCCCC12 (some centres undefined) | > 100 µM | > 100 µM | > 100 µM | > 100 µM | > 100 µM | > 100 µM | > 100 µM | > 100 µM | > 100 µM | > 100 µM | > 100 µM | – | – | – | – | – | > 100 µM | – | – |
| COc1ccccc1/C=C(\C#N)C(=O)c1ccccc1 | > 100 µM | > 100 µM | > 100 µM | > 100 µM | > 100 µM | > 100 µM | > 100 µM | > 100 µM | > 100 µM | > 100 µM | > 100 µM | > 100 µM | – | – | – | – | – | – | – |
| Cc1ccc(O)c(C(c2ccc([N+](=O)[O-])cc2)c2cc(C)ccc2O)c1 | 26.7 µM | > 100 µM | 44.1 µM | 30.7 µM | 22 µM | 30 µM | 20.7 µM | 23.9 µM | 27.3 µM | 22.8 µM | 23.1 µM | 28.6 µM | 14.3 µM | 34.7 µM | 24 µM | – | 26 µM | – | 26.2 µM |
